According to publication PMC11249646, “Small-Molecule Disruptors of the Interaction between Calcium- and Integrin-Binding Protein 1 and Integrin αIIbβ3 as Novel Antiplatelet Agents” (ACS Pharmacology & Translational Science, 2024):
Like-named read-outs stand apart in the source and are kept apart here.

Key:
[1] = target: T1, CIB1 and αIIb interaction (GST-CIB1 : F-αIIb peptide) (Homo sapiens, UniProt Q99828); experiment: FP assay, 384-well format (screen); format: binding; design: 384-well SCREEN Efficacy (%): concentration or dose not given beside the values
T1 construct: made in house; host or cells: BL-21 plus RIL cells (E. coli)
T1 sequence (Q99828 1-191): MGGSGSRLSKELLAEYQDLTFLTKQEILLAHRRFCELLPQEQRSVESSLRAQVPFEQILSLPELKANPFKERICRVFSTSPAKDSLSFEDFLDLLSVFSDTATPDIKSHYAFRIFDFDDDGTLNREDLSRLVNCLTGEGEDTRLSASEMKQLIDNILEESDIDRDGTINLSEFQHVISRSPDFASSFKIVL

[2] = target: T2, GST-CIB1:F-αIIb interaction (Homo sapiens, UniProt Q99828); experiment: Gel-based (in-gel) binding assay; conditions: 1 μM GST-CIB1, 400 nM F-αIIb; 60 μM, 1:2, 4-points
T2 construct: made in house; host or cells: BL-21 plus RIL cells (E. coli)
T2 sequence (Q99828 1-191): T1 sequence (Q99828 1-191)

[3] = tested on: washed human platelets; experiment: Human platelet aggregation assay (thrombin-induced); format: cell-based
Summary of the method: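 Washed platelets (2 × 10^8/mL) from citrated blood of healthy volunteers, pretreated 30 min at 37 °C with compound or DMSO vehicle, then activated with 0.03 U/mL thrombin. Aggregation traces recorded by aggregometry; P-selectin (CD62P) exposure measured by flow cytometry.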

[4] = target: T3, CIB1 and αIIb peptide (Homo sapiens, UniProt Q99828); experiment: Intrinsic tryptophan fluorescence (ITF) assay
T3 sequence (Q99828 1-191): T1 sequence (Q99828 1-191)

[5] = In vitro ADME: RLM stability; conditions: rat liver microsomes; read-out: Rat Liver Microsome Stability (t1/2)
[6] = target: T4, GST-CIB1 : F-scrambled peptide (Homo sapiens, UniProt Q99828); experiment: FP scrambled-peptide counter screen, 384-well format; format: binding; conditions: F-scrambled peptide
T4 construct: made in house; host or cells: BL-21 plus RIL cells (E. coli)
T4 sequence (Q99828 1-191): T1 sequence (Q99828 1-191)

[7] = target: T4, GST-CIB1 : F-scrambled peptide; experiment: FP scrambled-peptide counter screen, 1536-well format; format: binding; conditions: scrambled-peptide counterscreen

COc1ccccc1C(=O)c1no[n+]([O-])c1C(=O)c1ccccc1OC.O=C(O)C(F)(F)F [NCGC00351170-01]
IC50 ([1]; 384-well FP assay, Table 1, read-out: FP assay IC50): 4.19 µM
384-well SCREEN Efficacy (%) ([1]; F-αIIb peptide): 57%
384-well SCREEN Confirm? ([1]; F-αIIb peptide, YES/NO): YES
IC50 ([1]; F-αIIb peptide, read-out: 384-well SCREEN IC50): 7.9 µM
IC50 ([1]; quoted in text for comparison with MST EC50, read-out: potency in the 384-well FP assays): ~4 µM
Confirm and Selective? ([1]; selective toward αIIb: negative curve class and/or IC50 ratio of >3-fold and/or >2-fold efficacy vs scrambled peptide): Inconclusive
Active in Gel Assay? [2]: YES
Platelet Aggregation Result ([3]; 10 μM compound): Active
inhibition at 10 µM ([3]; Homo sapiens, Platelet, single concentration of 10 μM (n = 3), thrombin): 94%
lowest concentration required to achieve >95% inhibition of platelet aggregation ([3]; dose response, thrombin): 2 µM
Thrombin Assay 10 µM (%) ([3]; platelet aggregation inhibition at 10 µM): 94%
IC50 [4]: 15.6 µM
half-life [5]: 1.52 min
384-well COUNTERSCREEN Efficacy (%) [6]: 34%
384-well COUNTERSCREEN Confirm? ([6]; *: Curve in opposite direction): Inconclusive
IC50 ([6]; read-out: 384-well COUNTERSCREEN IC50): 8.9 µM
COUNTERSCREEN Efficacy (%) [7]: -14%
COUNTERSCREEN Confirm? ([7]; YES/NO call): YES
COUNTERSCREEN Curve Class ([7]; qHTS curve class): 4
